Experimental data taken from patent US6506339B1, “Method of sterilization” (Biomedical Design, Inc., priority 1997, dated 2003).
“And” between values parts separate entries of the source, which are not always exact repeats. Equal values may be shown once.

What was measured:
Type in all cases: cell-based
[1] = system: Bacillus subtilis ATCC 9372 spores; assay: Sterilization test with or without coupling enhancer (Example 3); conditions: 20 mM EDC, 20% isopropyl alcohol, 72 hours, about 40° C.
Method: In the experiments described above, a coupling enhancer (Sulfo-NHS) was added to EDC during the sterilization process. The following experiment was designed to test the efficacy of EDC in the presence or absence of an enhancer. A sterilization test process was carried out employing about 5.7 to 6.6×10^5 Bacillus subtilis ATCC 9372 spores, inoculating them in sterile cups for 10 minutes. A solution of 10 mM HEPES, 0.85% NaCl, 20% isopropyl alcohol, pH 6.5 was then added to each of the cups, which solution contained 20 mM EDC and either 1 mM Sulfo-NHS or 1 mM NHS or no enhancer. Incubation was carried out for 72 hours (treatment duration) with the cups at about 40° C., and the solutions from the cups were then filtered. The filters were rinsed with a 0.1% peptone water solution to eliminate any residual EDC and/or enhancer and were then incubated on Trypticase Soy Agar (TSA) plates.

[2] = system: spores of Bacillus subtilis; assay: Effect of EDC concentration, temperature and duration on spores on cross-linked tissue (Example 4); conditions: 20% IPA
Method: The following experiment was designed to test the effect of EDC concentration, of temperature and of duration of incubation on the inactivation of spores of Bacillus subtilis. The EDC concentrations tested were 5, 12.5 and 20 mM; the temperatures were 25, 32.5 and 40° C. for 4, 24 and 44 hours of incubation. […] Spores of Bacillus subtilis (about 2.5×10^5 per sample) were inoculated on tissue that had been cross-linked using the fixation method described in the '536 patent. The spores were allowed to contact the tissue for 10 minutes, after which time 50 ml of a solution of EDC at one of the concentrations indicated above was added to each cup containing the tissue plus the spores, and incubation was carried out at the respective temperatures and for the respective lengths of time. After such incubation for either 4, 24 or 44 hours, the solutions were filtered to recover the spores, and these were incubated on TSA plates for 2 weeks at 32 to 33° C. The tissue samples were washed with a solution containing a surfactant to fully extract the spores from the tissue, and the resulting solutions were filtered. After washing with 0.1% peptone water, the filters were incubated on TSA plates for 2 weeks at 32 to 33° C. in order to determine the number of survivors on or in the tissue. The colonies were enumerated for both the EDC solutions and the tissue wash solutions, and the results (numbers of colony forming units) were added.

[3] = system: Bacillus subtilis (niger) spores; assay: Sterilization without isopropyl alcohol and sulfo-NHS, cups with or without porcine valve tissue (Example 4B); conditions: 40° C., no isopropyl alcohol or sulfo-NHS
Method: An experiment similar to that of Example 2 is carried out using EDC as a coupling agent in the absence of isopropyl alcohol and sulfo-NHS. Bacillus subtilis (niger) spores at levels of about 10^6 are inoculated in sterile cups, some of which contain cross-linked porcine aortic valve tissue, for approximately 10 minutes. Solutions (50 ml) of 25, 50 and 70 mM EDC in 10 mM TRIS, 0.85% NaCl, pH 6.5, are prewarmed to 40° C., respectively added to the cups, and incubated at 40° C. for 1 to 3 days. The solutions are then diluted and filtered in order to collect microorganisms. The valve tissue is washed for 20 minutes in a reciprocating shaker in the presence of peptone water containing polyethylenesorbitan monooleate (Tween 80) in order to extract all spores of microorganisms from the tissue; the peptone water solution is added to the corresponding filter. Next, the filters are rinsed with a 0.1% peptone water solution to eliminate any residual EDC and incubated on TSA plates for 14 days. The plates are examined every day for growth, counting the colony forming units (CFUs).

[4] = system: spores of Bacillus subtilis; assay: Two sequential spore inoculations on cross-linked porcine valves (Example 5); conditions: 25 mM EDC, 20% isopropyl alcohol, 40° C.
Method: An experiment was also designed to test the bactericidal activity of the EDC treatment using two sequential inoculations of at least 1×10^6 spores of Bacillus subtilis per sample. In the first step, 1.43×10^6 spores (Log10=6.2) were inoculated in triplicate for 10 minutes onto 45 porcine valves which had been cross-linked using a method as described in the above-mentioned patent and patent application. Solutions of 25 mM EDC in 10 mM HEPES, 0.85% NaCl, 20% isopropyl alcohol, at pH 6.5 were poured into the cups containing the valve samples. After 2, 4, 6, and 8 hours of incubation at 40° C., the total surviving spores from 12 samples (solution plus tissue) were counted. After 8 hours of incubation, an additional 1.2×10^6 (Log10=6.1) spores were added to the remaining 33 samples. Summarizing, these remaining 33 samples were thus inoculated at t=0 with 1.43×10^6 spores and at t=8 with 1.2×10^6 spores. After various durations of incubation (see Table C for details), the surviving spores in solution and on the valve tissue were removed by filtering and incubated on TSA plates as described above. The positive and negative controls were determined to be valid for the test.

[5] = 5 mM EDC, 25° C., 4 hrs, about 2.5×10^5 spores on tissue
[6] = 5 mM EDC, 25° C., 44 hrs, about 2.5×10^5 spores on tissue
[7] = 5 mM EDC, 32.5° C., 24 hrs, about 2.5×10^5 spores on tissue
[8] = 5 mM EDC, 40° C., 4 hrs, about 2.5×10^5 spores on tissue
[9] = 12.5 mM EDC, 25° C., 24 hrs, about 2.5×10^5 spores on tissue
[10] = 12.5 mM EDC, 32.5° C., 4 hrs, about 2.5×10^5 spores on tissue
[11] = 12.5 mM EDC, 32.5° C., 24 hrs, about 2.5×10^5 spores on tissue (conditions 8-11, replicates), hydrochloride
[12] = 12.5 mM EDC, 32.5° C., 44 hrs, about 2.5×10^5 spores on tissue
[13] = 12.5 mM EDC, 40° C., 24 hrs, about 2.5×10^5 spores on tissue
[14] = 20 mM EDC, 25° C., 4 hrs, about 2.5×10^5 spores on tissue
[15] = 20 mM EDC, 25° C., 44 hrs, about 2.5×10^5 spores on tissue
[16] = 20 mM EDC, 32.5° C., 24 hrs, about 2.5×10^5 spores on tissue
[17] = 28 to 56 hours, rechallenge with 1.2×10^6 spores at 8 hours, mean of three samples
[18] = 2 hours, inoculum 1.43×10^6, mean of three samples
[19] = 4 hours, inoculum 1.43×10^6, mean of three samples
[20] = 6 hours, inoculum 1.43×10^6, mean of three samples
[21] = 8 hours, inoculum 1.43×10^6, mean of three samples
[22] = 11 hours, rechallenge with 1.2×10^6 spores at 8 hours, mean of three samples
[23] = 14 hours, rechallenge with 1.2×10^6 spores at 8 hours, mean of three samples
[24] = 20 hours, rechallenge with 1.2×10^6 spores at 8 hours, mean of three samples
[25] = 24 hours, rechallenge with 1.2×10^6 spores at 8 hours, mean of three samples

Compound: CCN=C=NCCCN(C)C.Cl [EDC, 1-ethyl-3(3-dimethylaminopropyl)carbodiimide hydrochloride]
- NUMBER OF COLONY FORMING UNITS (SURVIVORS) ([1]; enhancer 1 mM NHS): 0
- NUMBER OF COLONY FORMING UNITS (SURVIVORS) ([1]; enhancer 1 mM sulfo-NHS): 0
- NUMBER OF COLONY FORMING UNITS (SURVIVORS) ([1]; no enhancer): 0
- LOG REDUCTION [2, 5]: .27
- SURVIVORS [2, 5]: 135000 CFUs
- LOG REDUCTION [2, 6]: 2.3
- SURVIVORS [2, 6]: 1300 CFUs
- LOG REDUCTION [2, 7]: 3.0
- SURVIVORS [2, 7]: 208 CFUs
- LOG REDUCTION [2, 8]: 2.4
- SURVIVORS [2, 8]: 1100 CFUs
- SURVIVORS ([2]; 5 mM EDC, 40° C., 44 hrs, about 2.5×10^5 spores on tissue): 21 CFUs
- LOG REDUCTION [2, 9]: 3.0
- SURVIVORS [2, 9]: 225 CFUs
- LOG REDUCTION [2, 10]: 1.6
- SURVIVORS [2, 10]: 5900 CFUs
- LOG REDUCTION [2, 11]: 3.6 and 3.9 and 3.4 and 3.7
- SURVIVORS [2, 11]: 57 CFUs and 34 CFUs and 94 CFUs and 44 CFUs
- LOG REDUCTION [2, 12]: 3.9
- SURVIVORS [2, 12]: 33 CFUs
- LOG REDUCTION [2, 13]: 4.0
- SURVIVORS [2, 13]: 27 CFUs
- LOG REDUCTION [2, 14]: 0.9
- SURVIVORS [2, 14]: 31400 CFUs
- LOG REDUCTION [2, 15]: 4.2
- SURVIVORS [2, 15]: 16 CFUs
- LOG REDUCTION [2, 16]: 4.0
- SURVIVORS [2, 16]: 24 CFUs
- SURVIVORS ([2]; 20 mM EDC, 40° C., 4 hrs, about 2.5×10^5 spores on tissue): 5 CFUs
- LOG REDUCTION ([2]; 20 mM EDC, 40° C., 44 hrs, about 2.5×10^5 spores on tissue): 5.4
- time within which effective sterilization (inactivation of 1×10^6 spores) occurs ([3]; 25 mM EDC): ≤ 24 hours
- time within which effective sterilization (inactivation of 1×10^6 spores) occurs ([3]; 50 mM EDC): ≤ 24 hours
- time within which effective sterilization (inactivation of 1×10^6 spores) occurs ([3]; 70 mM EDC): ≤ 24 hours
- LOG REDUCTION [4, 17]: 6.1
- Total Survivors # CFUs [4, 17]: 0 CFUs
- Total Survivors Log 10 [4, 17]: 0 Log 10
- LOG REDUCTION [4, 18]: 4.5
- Total Survivors # CFUs [4, 18]: 58 CFUs
- Total Survivors Log 10 [4, 18]: 1.7 Log 10
- LOG REDUCTION [4, 19]: 5.6
- Total Survivors # CFUs [4, 19]: 4 CFUs
- Total Survivors Log 10 [4, 19]: 0.5 Log 10
- LOG REDUCTION [4, 20]: 6.2
- Total Survivors # CFUs [4, 20]: 0 CFUs
- Total Survivors Log 10 [4, 20]: 0 Log 10
- LOG REDUCTION [4, 21]: 6.2
- Total Survivors # CFUs [4, 21]: 0 CFUs
- Total Survivors Log 10 [4, 21]: 0 Log 10
- LOG REDUCTION [4, 22]: 3.7
- Total Survivors # CFUs [4, 22]: 300 CFUs
- Total Survivors Log 10 [4, 22]: 2.5 Log 10
- LOG REDUCTION [4, 23]: 6.1
- Total Survivors # CFUs [4, 23]: 0 CFUs
- Total Survivors Log 10 [4, 23]: 0 Log 10
- LOG REDUCTION [4, 24]: 6.1
- Total Survivors # CFUs [4, 24]: 0 CFUs
- Total Survivors Log 10 [4, 24]: 0 Log 10
- LOG REDUCTION [4, 25]: 6.1
- Total Survivors # CFUs [4, 25]: 0 CFUs
- Total Survivors Log 10 [4, 25]: 0 Log 10
